Measured values published in PubChem BioAssay AID1671282.

Biological target: Tyrosine-protein kinase Fyn (Homo sapiens) (UniProt P06241)
Experiment: inhibitors of human FYN tyrosine kinase activity – biochemical, Z'-LYTE, FRET readout, direct format, dose response (AID 1671282)
Conditions: Z'-LYTE FRET kinase assay, recombinant FYN

Sequence of Tyrosine-protein kinase Fyn (Homo sapiens) (P06241 whole entry, looked up): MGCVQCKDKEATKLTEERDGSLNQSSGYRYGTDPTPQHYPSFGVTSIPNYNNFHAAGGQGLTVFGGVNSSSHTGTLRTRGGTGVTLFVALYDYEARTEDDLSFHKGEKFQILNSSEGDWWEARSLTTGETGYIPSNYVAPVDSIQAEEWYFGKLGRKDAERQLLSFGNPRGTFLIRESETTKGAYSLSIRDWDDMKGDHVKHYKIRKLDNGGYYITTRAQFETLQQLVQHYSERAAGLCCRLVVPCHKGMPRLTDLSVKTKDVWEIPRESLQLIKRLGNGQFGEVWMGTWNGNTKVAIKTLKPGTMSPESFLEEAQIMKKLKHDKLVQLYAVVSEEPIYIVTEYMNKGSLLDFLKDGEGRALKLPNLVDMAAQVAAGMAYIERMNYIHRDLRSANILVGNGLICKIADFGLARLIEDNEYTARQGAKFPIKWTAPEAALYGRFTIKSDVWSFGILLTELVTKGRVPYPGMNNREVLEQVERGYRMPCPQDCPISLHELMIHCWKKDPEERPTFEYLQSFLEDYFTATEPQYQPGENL

In the case of `COc1cc2ncnc(Nc3cccc(Cl)c3)c2cc1OC`, the IC50 is reported as 8.78 µM.
